# Results: patent US20230339970A1, “CASEIN KINASE 1 DELTA MODULATORS” (priority 2020, published 2023)
# What was measured:
# [1] = target: T1, human CSNK1D (Homo sapiens, UniProt P48730); assay: Whole Cell nBRET CSNK1D Binding Assay; conditions: living CHO cells stably expressing human CSNK1D tagged with nanoluciferase; NanoBret tracer 130 nM; 2 hours at 37 C
# T1 construct: expressed in transfected cells
# [2] = target: T2, human recombinant GST cleaved CSNK1D (Homo sapiens, UniProt P48730); assay: Purified Enzyme Assay (ADP-Glo CSNK1D Kinase Assay); format: biochemical; conditions: 2 nM CSNK1D; peptide substrate 150 μM; ATP 20 μM; 45 minutes at room temperature
# T2 construct: GST (cleaved yes); purchased University of Dundee clone DU 19064
# T2 sequence (P48730 whole entry): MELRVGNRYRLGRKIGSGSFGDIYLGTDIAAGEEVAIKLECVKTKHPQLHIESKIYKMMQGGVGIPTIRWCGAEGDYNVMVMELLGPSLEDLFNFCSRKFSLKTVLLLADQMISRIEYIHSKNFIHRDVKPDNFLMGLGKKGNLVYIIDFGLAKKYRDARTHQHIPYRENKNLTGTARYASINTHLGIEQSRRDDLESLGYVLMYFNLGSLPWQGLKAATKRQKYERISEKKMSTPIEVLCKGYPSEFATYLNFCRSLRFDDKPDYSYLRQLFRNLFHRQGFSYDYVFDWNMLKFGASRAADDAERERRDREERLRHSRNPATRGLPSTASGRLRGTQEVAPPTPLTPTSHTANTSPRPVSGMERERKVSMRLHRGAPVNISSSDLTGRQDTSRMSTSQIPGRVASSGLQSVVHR
# In short: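 Percent activity derived from ADP-Glo quantification of ADP produced. Reactions: compound dose-response with human recombinant GST-cleaved CSNK1D, ATP and substrate peptide PLSRTL-pS-VASLPGL, incubated 45 min at room temperature.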
# T1 sequence (P48730 whole entry): as above
compound,measurement,setting,value
"Cc1nc2[nH]ncc2c(-c2c(-c3ccc(F)cn3)nn3c2C[C@@H]2C[C@@H]23)c1F [Example 273, (4aS,5aS)-3-(5-Fluoro-6-methyl-1H-pyrazolo[3,4-b]pyridin-4-yl)-2-(5-fluoropyridin-2-yl)-4,4a,5,5a-tetrahydrocyclopropa[4,5]pyrrolo[1,2-b]pyrazole]",IC50,[1],29 nM
same,IC50,[2],2 nM
"Cc1nc2[nH]nc(C)c2c(-c2c(-c3ccc(F)cn3)nn3c2C[C@@H]2C[C@@H]23)c1F [Example 274, (4aS,5aS)-3-(5-Fluoro-3,6-dimethyl-1H-pyrazolo[3,4-b]pyridin-4-yl)-2-(5-fluoropyridin-2-yl)-4,4a,5,5a-tetrahydrocyclopropa[4,5]pyrrolo[1,2-b]pyrazole]",IC50,[1],56 nM
same,IC50,[2],5 nM
"Fc1ccc(-c2nn3c(c2-c2c(F)cnc4[nH]ncc24)CC(F)(F)CC3)cc1 [Example 278, 4-[5,5-Difluoro-2-(4-fluorophenyl)-6,7-dihydro-4H-pyrazolo[1,5-a]pyridin-3-yl]-5-fluoro-1H-pyrazolo[3,4-b]pyridine]",IC50,[1],64 nM
same,IC50,[2],7 nM
"Cc1nc(-c2c(-c3ccc(F)cc3)nn3c2CCC(F)(F)C3)c2cn[nH]c2n1 [Example 279, 4-[6,6-Difluoro-2-(4-fluorophenyl)-5,7-dihydro-4H-pyrazolo[1,5-a]pyridin-3-yl]-6-methyl-1H-pyrazolo[3,4-d]pyrimidine]",IC50,[1],74 nM
same,IC50,[2],5 nM
"Fc1ccc(-c2nn3c(c2-c2c(F)cnc4[nH]ncc24)CCC(F)(F)C3)cc1 [Example 280, 4-(6,6-difluoro-2-(4-fluorophenyl)-4,5,6,7-tetrahydropyrazolo[1,5-a]pyridin-3-yl)-5-fluoro-1H-pyrazolo[3,4-b]pyridine]",IC50,[1],19 nM
same,IC50,[2],4 nM
"CC1(C)CCc2c(-c3ccnc(N)c3)c(-c3ccc(F)cn3)nn2C1 [Example 281, 4-[2-(5-Fluoro-2-pyridyl)-6,6-dimethyl-5,7-dihydro-4H-pyrazolo[1,5-a]pyridin-3-yl]pyridin-2-amine]",IC50,[1],54 nM
same,IC50,[2],4 nM
"CC1(C)CCc2c(-c3c(F)cnc4[nH]ncc34)c(-c3ccc(F)cn3)nn2C1 [Example 282, 5-Fluoro-4-[2-(5-fluoro-2-pyridyl)-6,6-dimethyl-5,7-dihydro-4H-pyrazolo[1,5-a]pyridin-3-yl]-1H-pyrazolo[3,4-b]pyridine]",IC50,[1],48 nM
same,IC50,[2],9 nM
"[2H]C([2H])([2H])C1(C([2H])([2H])[2H])CCc2c(-c3ccnc4[nH]ncc34)c(-c3ccc(F)cn3)nn2C1 [Example 283, 4-(2-(5-fluoropyridin-2-yl)-6,6-bis(methyl-d3)-4,5,6,7-tetrahydropyrazolo[1,5-a]pyridin-3-yl)-1H-pyrazolo[3,4-b]pyridine]",IC50,[1],7 nM
same,IC50,[2],2 nM
"[2H]C([2H])([2H])C1(C([2H])([2H])[2H])CC(O)c2c(-c3ccnc4[nH]ncc34)c(-c3ccc(F)cn3)nn2C1 (centres unmarked) [Example 366, 2-(5-Fluoropyridin-2-yl)-6,6-bis(methyl-d3)-3-(1H-pyrazolo[3,4-b]pyridin-4-yl)-4,5,6,7-tetrahydropyrazolo[1,5-a]pyridin-4-ol]",IC50,[1],176 nM
same,IC50,[2],14 nM
"CC1(C)Cn2nc(-c3ccc(F)cn3)c(-c3ccn4nccc4c3)c2O1 [Example 367, 6-(5-Fluoro-2-pyridyl)-2,2-dimethyl-7-pyrazolo[1,5-a]pyridin-5-yl-3H-pyrazolo[5,1-b]oxazole]",IC50,[1],566 nM
same,IC50,[2],41 nM
"Cc1cc(-c2c(-c3ccc(F)cn3)nn3c2OC(C)(C)C3)c2cn[nH]c2n1 [Example 368, 6-(5-Fluoro-2-pyridyl)-2,2-dimethyl-7-(6-methyl-1H-pyrazolo[3,4-b]pyridin-4-yl)-3H-pyrazolo[5,1-b]oxazole]",IC50,[1],55 nM
same,IC50,[2],7 nM
"Fc1ccc(-c2nn3c(c2-c2ccncc2)COCC3)cc1 [Example 369, 2-(4-Fluorophenyl)-3-(4-pyridyl)-6,7-dihydro-4H-pyrazolo[5,1-c][1,4]oxazine]",IC50,[1],96 nM
same,IC50,[2],12 nM
"CCn1ncc2cc(-c3c(-c4ccc(F)cc4)nn4c3COCC4C)cnc21 (centres unmarked) [Example 370, 3-(1-Ethyl-1H-pyrazolo[3,4-b]pyridin-5-yl)-2-(4-fluorophenyl)-7-methyl-6,7-dihydro-4H-pyrazolo[5,1-c][1,4]oxazine]",IC50,[1],> 10000 nM
same,IC50,[2],524 nM
"CCn1ncc2cc(-c3c(-c4ccc(F)cn4)nn4c3CO[C@@H](C)C4)cnc21 [Example 371, (S)-3-(1-Ethyl-1H-pyrazolo[3,4-b]pyridin-5-yl)-2-(5-fluoropyridin-2-yl)-6-methyl-6,7-dihydro-4H-pyrazolo[5,1-c][1,4]oxazine]",IC50,[1],7800 nM
same,IC50,[2],404 nM
"Cc1cnc(N)cc1-c1c(-c2ccc(F)cn2)nn2c1COC(C)(C)C2 [Example 378, 4-(2-(5-Fluoropyridin-2-yl)-6,6-dimethyl-6,7-dihydro-4H-pyrazolo[5,1-c][1,4]oxazin-3-yl)-5-methylpyridin-2-amine]",IC50,[1],2300 nM
same,IC50,[2],119 nM
"CCC(=O)Nc1cc(-c2c(-c3ccc(F)cn3)nn3c2COC(C)(C)C3)c(C)cn1 [Example 379, N-(4-(2-(5-Fluoropyridin-2-yl)-6,6-dimethyl-6,7-dihydro-4H-pyrazolo[5,1-c][1,4]oxazin-3-yl)-5-methylpyridin-2-yl)propionamide]",IC50,[1],738 nM
same,IC50,[2],41 nM
"CC1(C)Cn2nc(-c3ccc(F)cn3)c(-c3cc(N)n4nccc4c3)c2CO1 [Example 380, 5-[2-(5-Fluoro-2-pyridyl)-6,6-dimethyl-4,7-dihydropyrazolo[5,1-c][1,4]oxazin-3-yl]pyrazolo[1,5-a]pyridin-7-amine]",IC50,[1],93 nM
same,IC50,[2],10 nM
"CC1(C)Cn2nc(-c3ccc(F)cn3)c(-c3ccn4ncc(N)c4c3)c2CO1 [Example 381, 5-[2-(5-Fluoro-2-pyridyl)-6,6-dimethyl-4,7-dihydropyrazolo[5,1-c][1,4]oxazin-3-yl]pyrazolo[1,5-a]pyridin-3-amine]",IC50,[1],228 nM
same,IC50,[2],64 nM
"Cc1cn2nccc2cc1-c1c(-c2ccc(F)cn2)nn2c1COC(C)(C)C2 [Example 382, 2-(5-Fluoro-2-pyridyl)-6,6-dimethyl-3-(6-methylpyrazolo[1,5-a]pyridin-5-yl)-4,7-dihydropyrazolo[5,1-c][1,4]oxazine]",IC50,[1],> 10000 nM
same,IC50,[2],451 nM
"Cc1cnn2ccc(-c3c(-c4ccc(F)cn4)nn4c3COC(C)(C)C4)cc12 [Example 383, 2-(5-Fluoro-2-pyridyl)-6,6-dimethyl-3-(3-methylpyrazolo[1,5-a]pyridin-5-yl)-4,7-dihydropyrazolo[5,1-c][1,4]oxazine]",IC50,[1],1040 nM
same,IC50,[2],20 nM
"CC1(C)Cn2nc(-c3ccc(F)cn3)c(-c3ccn4ncc(Cl)c4c3)c2CO1 [Example 384, 3-(3-Chloropyrazolo[1,5-a]pyridin-5-yl)-2-(5-fluoropyridin-2-yl)-6,6-dimethyl-6,7-dihydro-4H-pyrazolo[5,1-c][1,4]oxazine]",IC50,[1],171 nM
same,IC50,[2],15 nM
"CC1(C)Cn2nc(-c3ccc(F)cn3)c(-c3ccn4ncnc4c3)c2CO1 [Example 385, 3-([1,2,4]Triazolo[1,5-a]pyridin-7-yl)-2-(5-fluoropyridin-2-yl)-6,6-dimethyl-6,7-dihydro-4H-pyrazolo[5,1-c][1,4]oxazine]",IC50,[1],1570 nM
same,IC50,[2],50 nM
